{
  "source": "paper PMC5712521",
  "about": "“Dendrogenin A drives LXR to trigger lethal autophagy in cancers” (Nature Communications, 2017)",
  "key": {"[1]": {"target": "T1, human liver-X-receptor LXRβ (Homo sapiens, UniProt P55055)", "T1 construct": "expressed in transfected cells; host or cells: HEK293T", "T1 sequence (P55055 whole entry)": "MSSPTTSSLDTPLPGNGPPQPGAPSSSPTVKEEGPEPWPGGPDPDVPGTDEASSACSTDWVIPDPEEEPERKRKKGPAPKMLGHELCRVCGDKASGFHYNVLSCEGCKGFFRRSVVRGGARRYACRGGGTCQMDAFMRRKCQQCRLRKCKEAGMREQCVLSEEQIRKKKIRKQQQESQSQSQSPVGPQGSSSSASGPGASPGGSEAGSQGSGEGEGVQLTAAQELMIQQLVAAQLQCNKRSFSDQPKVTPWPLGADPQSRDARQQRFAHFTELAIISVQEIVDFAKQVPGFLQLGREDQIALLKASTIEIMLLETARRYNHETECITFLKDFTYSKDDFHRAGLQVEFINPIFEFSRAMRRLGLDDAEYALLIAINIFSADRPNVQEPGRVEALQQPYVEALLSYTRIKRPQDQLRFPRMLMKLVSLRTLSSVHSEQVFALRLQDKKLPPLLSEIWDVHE", "T1 sequence (P48443 whole entry partner)": "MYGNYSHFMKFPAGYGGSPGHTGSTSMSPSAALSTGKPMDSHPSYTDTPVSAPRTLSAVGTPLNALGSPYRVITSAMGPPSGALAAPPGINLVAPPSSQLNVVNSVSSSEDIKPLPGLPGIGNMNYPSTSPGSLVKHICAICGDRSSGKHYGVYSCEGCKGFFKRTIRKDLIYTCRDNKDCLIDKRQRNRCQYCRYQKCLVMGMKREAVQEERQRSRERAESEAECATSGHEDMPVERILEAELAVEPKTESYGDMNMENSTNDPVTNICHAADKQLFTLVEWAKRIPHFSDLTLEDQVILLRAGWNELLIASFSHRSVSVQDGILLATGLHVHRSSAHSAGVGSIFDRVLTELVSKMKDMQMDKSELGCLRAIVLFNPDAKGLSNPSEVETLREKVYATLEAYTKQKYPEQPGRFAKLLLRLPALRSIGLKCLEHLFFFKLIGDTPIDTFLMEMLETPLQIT", "assay": "LXRE-luciferase gene reporter assay in HEK293T, LXRβ", "type": "cell-based", "conditions": "LXRβ; 10 µM 22(R)HC; read-out: IC50, inhibition of LXR-dependent luciferase activity stimulated by 22(R)HC", "source_text": "HEK293T were used for luciferase assays. Cells were transfected using the PolyEthylenImine (PEI) method with human retinoid-X receptor (RXRγ) and human liver-X-receptors (LXRα or LXRβ) with LXRE-Luc; RXRγ and human farnesoid X receptor (FXR) with EcRE-Luc; RXRγ and human steroid and xenobiotic X receptor (SXR) with DR4-Luc; RXRγ and human peroxisome proliferator activated receptors (PPARα, or PPARγ) with PPRE-Luc; RXRγ and human retinoic acid receptor (RARα) with DR1-Luc; human AHR and human ARNT with a DRE-Luc; human vitamin D receptor (VDR) with VDRE-Luc. Cells were transfected with plasmids encoding human glucocorticoid receptor (GR), progesterone receptor (PR), or androgen receptor (AR) with MMTV-Luc; or estrogen receptors (ERα and ERβ) with an ERE-Luc. The day after transfection with the luciferase reporter gene construct, cells were seeded in 12-well plates (50,000 cells per well). […] Luciferase activity was measured using the luciferase assay reagent (Promega), according to the manufacturer’s instructions. Protein concentrations were measured using the Bradford method to normalize luciferase activities. For each condition, luciferase activity was calculated from the data of three independent wells."}, "[2]": {"tested_on": "SKMEL-28 cells", "assay": "Cell cycle analysis by flow cytometry", "type": "cell-based, human", "conditions": "5 µM DDA, 48 h", "description": "Control and DDA-treated cells were fixed in 70% ethanol and then washed with PBS. Cells were incubated with 100 μg/ml RNase A for 30 min at 37 °C, permeabilized with 0.25% Tween-20, and stained with 50 μg/ml propidium iodide (PI) for 30 min at 37 °C. The DNA content of stained cells was analyzed by flow cytometry. The fraction of cells in sub-G1 phase was calculated using flowJo software (Ashland, Oregon). Data were obtained from 10^5 viable cells. […]"}, "[3]": {"tested_on": "HL60 cells", "assay": "HL60 cells orthotopically engrafted (i.v.) into NSG mice", "type": "in vivo", "conditions": "for reduction of the number of HL60 cells in bone marrow and brain / reduction of HL60 cell viability in bone marrow and brain: 16 days; for reduction of HL60 cell viability in bone marrow and brain: Annexin-V", "description": "The engraftment of human primary AML cells was performed on NSG mice. Briefly, human primary AML cells, HL60 cells or normal CD34+ cells were resuspended in PBS, and 0.8 × 10^6 to 2 × 10^6 viable trypan blue-negative cells were injected intravenously into NSG mice that had been previously irradiated for 24 h with 2.25 Gy. […] The viability of AML cells was established by quantifying the percentage of hCD45+CD33+Annexin-V- cells."}, "[4]": {"tested_on": "normal hematopoietic progenitor cells", "assay": "Normal human CD34+ cells engrafted into NSG mice", "type": "in vivo", "conditions": "human BM CD34+ engrafted into NSG mice; 20 mg/kg/day i.p., 3 weeks", "source_text": "AML patient and normal bone marrow samples were obtained from patients in the Hematology Department of Toulouse (France), after obtaining consent in accordance with the Declaration of Helsinki[67], and according to institutional guidelines. Samples were stored at the INSERM-1037 HIMIP collection (no. DC-2008-307-CPTP1 HIMIP). For some experiments, fresh leukemic blasts recovered at diagnosis were immediately treated with DDA. In other cases, frozen cells were thawed in IMDM medium with 20% FBS. Patient characteristics are shown in supplementary data 1. Normal bone marrow cells were subjected to Ficoll-Paque density gradient separation to isolate mononuclear cells, followed by CD34+ cell separation using high-gradient magnetic-activated cell sorting, according to the manufacturer’s manual. The in vivo assays were performed with cryopreserved cells.\nThe engraftment of human primary AML cells was performed on NSG mice. […] Two and a half weeks after the injection of human cells, mice were treated with DDA (20 mg/kg/day by IP injection) or vehicle as control for 2, 3 weeks, after which the engraftment of human AML and normal hematopoietic cells was measured in the bone marrow, spleen and brain by quantifying the percentage of hCD45+CD33+ cells by flow cytometry. The viability of AML cells was established by quantifying the percentage of hCD45+CD33+Annexin-V- cells."}},
  "data": [
    {"smiles": "CC(C)CCC[C@@H](C)[C@H]1CC[C@H]2[C@@H]3C[C@@H](NCCc4cnc[nH]4)[C@@]4(O)C[C@@H](O)CC[C@]4(C)[C@H]3CC[C@]12C", "note": "[DDA, Dendrogenin A]", "values": [
      {"measurement": "IC50", "setting": "[1]", "value": "76 ± 12", "unit": "nM"},
      {"measurement": "Cell cycle distribution: G0/G1", "setting": "[2]", "value": 51.80, "unit": "%"},
      {"measurement": "Cell cycle distribution: G2/M", "setting": "[2]", "value": 4.93, "unit": "%"},
      {"measurement": "Cell cycle distribution: S", "setting": "[2]", "value": 8.99, "unit": "%"},
      {"measurement": "Cell cycle distribution: Sub G0/G1", "setting": "[2]", "value": 34.28, "unit": "%"},
      {"measurement": "reduction of the number of HL60 cells in bone marrow and brain", "setting": "[3]; 20 mg/kg/day i.p.", "value": "60.5 ± 11", "unit": "%"},
      {"measurement": "reduction of HL60 cell viability in bone marrow and brain", "setting": "[3]; 20 mg/kg/day i.p.", "value": "21.9 ± 6", "unit": "%"},
      {"measurement": "reduction of the number of HL60 cells in bone marrow and brain", "setting": "[3]; 40 mg/kg/day p.o.", "value": "47 ± 9", "unit": "%"},
      {"measurement": "reduction of HL60 cell viability in bone marrow and brain", "setting": "[3]; 40 mg/kg/day p.o.", "value": "17.3 ± 5", "unit": "%"},
      {"measurement": "overall survival of HL60-engrafted mice", "setting": "[3]; 40 mg/kg/day p.o., after disease establishment", "value": "significantly improved the survival"},
      {"measurement": "effect on normal hematopoietic progenitor cells", "setting": "[4]", "value": "no effect"}
    ]}
  ]
}
